# Experimental data reported in patent US12227500B2, “Substituted pyrrolo[2,3-b]pyridines for suppressing toxic endoplasmic reticulum stress” (THE TRUSTEES OF COLUMBIA UNIVERSITY IN THE CITY OF NEW YORK, priority 2018, dated 2025).
# Values joined by “and” are separate entries in the source; they are usually repeats but may differ in a detail not shown here. Identical values can stand only once. Like-named read-outs stand apart in the source and are kept apart here.
# Experiments:
# [1] = system: HB9::GFP-SOD1^+/+ human motor neurons; assay: Rescue of CPA toxicity in human ESC-derived motor neurons, SOD1^+/+; assay type: cell-based; conditions: WT motor neurons, 33 μM CPA
# Excerpt: (§1) One advantage of the stem cell-derived motor neuron survival assay is that it can be easily extended to human motor neurons. To adapt the assay to human cells, we generated a new isogenic pair of ESC lines derived from a human ESC line expressing GFP under the control of the Hb9 motor neuron promoter (HUES3 HB9::GFP, (Di Giorgio et al. 2008)). […] . The pair of cell lines was differentiated into motor neurons in parallel using previously published protocols (Amoroso et al. 2013; […] .
# (§2) Differentiation of human isogenic HUES3 ESC HB9::GFP reporter lines into motor neurons was performed as previously described (Maury et al. 2015). Cells were dissociated on day 16 of differentiation, FACS-sorted and plated on poly-ornithine- and laminin-coated surfaces as above. Serum-free human motor neuron plating media was supplemented with the antimitotic UFdU and the neurotrophic factors GDNF, BDNF, CNTF, and IGF1 (all at 10 ng/mL) as described (Johnson-Kerner et al. 2015).
# [2] = system: HB9::GFP-SOD1^+/A4V human motor neurons; assay: Rescue of CPA toxicity in human ESC-derived motor neurons, SOD1^+/A4V; assay type: cell-based; conditions: SOD1^A4V motor neurons, 33 μM CPA
# Excerpt: as §1, §2
# [3] = Solubility of kenpaullone (observation); assay type: physicochemical
# [4] = molecular target: MLK3 (Homo sapiens, UniProt Q16584); conditions: 0.5 μM; Anastassiadis et al. 2011; cited from earlier work
# MLK3, sequence (Q16584 whole entry, species assumed): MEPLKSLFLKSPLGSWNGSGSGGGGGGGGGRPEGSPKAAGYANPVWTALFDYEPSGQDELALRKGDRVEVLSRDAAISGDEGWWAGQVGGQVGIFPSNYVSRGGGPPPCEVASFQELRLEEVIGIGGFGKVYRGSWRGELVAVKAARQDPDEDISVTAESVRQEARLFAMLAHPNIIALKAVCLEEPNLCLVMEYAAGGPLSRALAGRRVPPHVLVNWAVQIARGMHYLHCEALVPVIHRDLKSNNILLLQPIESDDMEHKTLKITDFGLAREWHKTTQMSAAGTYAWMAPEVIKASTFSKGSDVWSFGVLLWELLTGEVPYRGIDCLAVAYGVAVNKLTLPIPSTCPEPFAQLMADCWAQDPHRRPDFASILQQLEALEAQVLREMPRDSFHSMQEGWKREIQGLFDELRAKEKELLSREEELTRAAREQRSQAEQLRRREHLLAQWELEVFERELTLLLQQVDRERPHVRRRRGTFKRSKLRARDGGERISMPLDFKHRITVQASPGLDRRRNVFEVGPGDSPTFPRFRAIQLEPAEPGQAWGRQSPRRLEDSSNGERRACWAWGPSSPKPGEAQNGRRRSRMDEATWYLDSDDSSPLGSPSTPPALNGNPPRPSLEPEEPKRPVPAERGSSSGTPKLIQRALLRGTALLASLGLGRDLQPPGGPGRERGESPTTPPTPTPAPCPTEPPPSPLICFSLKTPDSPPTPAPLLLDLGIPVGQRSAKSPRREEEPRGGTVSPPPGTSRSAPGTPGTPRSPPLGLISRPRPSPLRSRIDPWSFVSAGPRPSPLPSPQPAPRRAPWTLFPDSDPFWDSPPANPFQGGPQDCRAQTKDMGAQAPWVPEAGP
# [5] = system: hSOD1^G93A mice; assay: TUDCA on neuromuscular junction denervation of tibialis anterior; assay type: in vivo, mouse; conditions: 0.5 mg/g subcutaneously every three days, P30 to P50
# Excerpt: To test the ability of TUDCA to preserve motor axons in ALS models in vivo, we designed a small-scale study in which we evaluated the denervation of the fast fatigable hind limb muscle tibialis anterior (TA) (FIG. 20D). […]. During this period, the TA muscles display 25-40% denervation before becoming substantially atrophied at later time points. […]. At the end of the experiment, we counted total NMJs by staining for acetylcholine receptors on the TA muscle with Alexa Fluor 488-conjugated α-bungarotoxin, and assessed their innervation by staining for motor axons with antibodies against vesicular acetylcholine […] (VAChT) (FIG. 20F). […].
# (2) hSOD1^WT mice receiving 0.5 mg/g TUDCA in 0.01 M PBS subcutaneously to evaluate the mutation-specific effects of NMJ denervation and of the drug; […]. […] Because a lack of co-localization indicated muscle denervation, % NMJ innervation was determined by dividing the total number of areas of overlap between VAChT and BTX signals (total number innervated endplates) by the number of areas containing BTX signal (total number of endplates). One TA was assessed for each animal (n=4-6), with every third section throughout the whole muscle stained and counted such that a minimum of 1000 NMJs were evaluated per animal. Images were acquired using a Nikon Eclipse TE-2000-E fluorescence microscope with a 4× or 10× objective. […]
# [6] = system: human stem cell-derived motor neurons derived from a healthy patient
# [7] = molecular target: NUAK1 (Homo sapiens, UniProt O60285); conditions: cited from earlier work
# NUAK1, sequence (O60285 whole entry, species assumed): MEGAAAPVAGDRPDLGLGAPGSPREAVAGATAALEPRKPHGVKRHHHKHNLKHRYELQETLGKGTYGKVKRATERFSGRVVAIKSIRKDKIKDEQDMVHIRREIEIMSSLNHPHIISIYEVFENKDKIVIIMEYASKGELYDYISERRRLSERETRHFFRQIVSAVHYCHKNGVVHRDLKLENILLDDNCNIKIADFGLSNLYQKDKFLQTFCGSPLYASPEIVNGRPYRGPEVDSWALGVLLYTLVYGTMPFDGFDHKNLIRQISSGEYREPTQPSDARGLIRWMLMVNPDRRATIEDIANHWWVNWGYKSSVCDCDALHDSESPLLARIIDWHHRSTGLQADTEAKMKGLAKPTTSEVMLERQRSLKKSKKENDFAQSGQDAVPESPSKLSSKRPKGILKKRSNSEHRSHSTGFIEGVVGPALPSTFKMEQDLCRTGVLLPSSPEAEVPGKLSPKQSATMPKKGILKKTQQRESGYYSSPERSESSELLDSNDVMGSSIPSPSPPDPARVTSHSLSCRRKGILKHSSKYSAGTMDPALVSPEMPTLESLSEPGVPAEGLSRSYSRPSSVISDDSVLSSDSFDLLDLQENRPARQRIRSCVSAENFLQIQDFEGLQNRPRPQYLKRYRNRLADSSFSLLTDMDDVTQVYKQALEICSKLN
# [8] = system: human stem cell-derived motor neurons derived from a healthy patient; assay: CPA survival assay, wild-type human stem cell-derived motor neurons; conditions: 8-point dilution series
# [9] = system: human ES motor neurons; assay: Rescue of CPA toxicity by kinase inhibitors in dilution series (FIG. 3); conditions: dilution series, FIG. 3
# [10] = system: human ES motor neurons carrying the ALS-causing SOD1^A4V mutation; assay: cells; assay type: cell-based; conditions: Homo sapiens, Neuron, 72 h, CPA 33 μM, 72 h
# Description: Next, survival assays were performed with all the analogs at once to generate a low-variability dataset. All compounds were evaluated at concentrations ranging from 0.1-3.0 μM (five-point dilution) in three technical replicates and two biological replicates.
# [11] = Plasma and brain concentration 30 min after IP injection; assay type: in vivo, mouse; conditions: male, C57BL6/J, mouse, mice, ip dosing, 30 minutes; for Kp at 30 min: brain/plasma, read-out: B/P
# Description: All studies were performed on 6-week old male C57BL6/J mice that were housed in the Columbia University Medical Center facility in a 12h light/dark cycle with access to food and water ad libitum. All animal procedures were approved by the Columbia University IACUC. […] Animals were weighed and injected once intraperitoneally (IP) at the indicated dose (10 or 20 mg/kg). After 30 min, animals were deeply anesthetized with 2.5% Avertin. Whole blood was collected by cardiac puncture in tubes containing 0.5M EDTA as an anticoagulant, and centrifuged for 10 min at 845 rcf at 4° to isolate plasma. Following cardiac puncture, animals were decapitated and brains were dissected and weighed. Brain samples were homogenized with a glass dounce homogenizer in 5 volumes of ddH2O. Brain and plasma samples were snap frozen in liquid nitrogen and stored at −80° C. before further processing.
# The plasma samples were transferred to Eppendorf tubes (50 μL per sample) and diluted with acetonitrile (200 μL). The samples were sonicated for 1 minute followed by centrifugation at 16,000 rpm for 10 minutes. The supernatant was transferred to another Eppendorf tube and the solvent evaporated overnight. The samples were reconstituted in a mixture of 40 μL acetonitrile and 10 μL water transferred to a sample vial with insert, and analyzed by LC-MS.
# The homogenized brain samples (250 μL) were transferred to Eppendorf tubes and diluted with acetonitrile (750 μL). The samples were sonicated for 1 minute followed by centrifugation at 16,000 rpm for 10 minutes. The supernatant (900 μL) was transferred to another Eppendorf tube and the solvent evaporated overnight. The samples were reconstituted in a mixture of 80 μL acetonitrile and 20 μL water, transferred to a sample vial with insert, and analyzed by LC-MS.
# LC-MS analysis was performed on a platform comprising a Thermo Scientific Dionex Ultimate 3000 and a Bruker amaZon SL equipped with an electrospray ionization source controlled by Bruker Hystar 3.2. The compound concentration in each plasma sample was determined using a calibration curve. Chromatographic separation was performed by injecting 10 μL of the sample onto an Agilent Eclipse Plus C18 column (2.1×50 mm, 3.5 μm) maintained at 20° C. The flow rate was maintained at 400 μL/min. The initial flow conditions were 60% solvent A (water containing 0.1% acetic acid) and 40% solvent B (methanol containing 0.1% acetic acid). Solvent B was raised to 60% over 0.25 minutes and to 70% by 6.75 minutes.
# [12] = system: phospho-cjun; assay: Phospho-cjun in olfactory bulbs after treatment in vivo (western blot); design: species or system mouse; conditions: 10 mg/kg oral gavage
# Description: Compounds at 10 mg/kg were delivered intraperitoneally (IP), orally, or sub-cutaneously (SC). Animals were sacrificed 1 h after treatment. Their olfactory bulbs were dissected and lysed for western blot analysis. Phospho-cjun expression was normalized to the housekeeping protein GAPDH.
# We therefore selected phospho-cjun as a marker of target engagement for further in vivo studies. C-jun is highly expressed throughout the murine central nervous system, especially in the olfactory bulbs. […] Animals were then sacrificed after 1 h, and their olfactory bulbs were sub-dissected and lysed for further western blot analysis. Samples were probed with an antibody specific to phosphorylated c-jun (at serine 63; cell signaling) and normalized to the housekeeping gene GAPDH.
compound,measurement,setting,value
O=C1Cc2c([nH]c3ccc(Br)cc23)-c2ccccc2N1 [Kenpaullone],rescue of CPA-induced cell death,[1],42%
same,rescue of CPA-induced cell death,[2],31%
same,solubility at the concentrations effective in in vitro CPA assays,[3],insoluble
same,MLK3 activity remaining,[4],49.3%
"C[C@H](CCC(=O)NCCS(=O)(=O)O)[C@H]1CC[C@H]2[C@@H]3[C@@H](O)C[C@@H]4C[C@H](O)CC[C@]4(C)[C@H]3CC[C@]12C [TUDCA, tauroursodeoxycholic acid]",rescue of CPA-induced cell death,[1],34%
same,rescue of CPA-induced cell death,[2],9%
same,NMJ innervation vs untreated animals,[5],"moderate, but statistically significant increase in NMJ innervation"
Cc1nc(Nc2cnn(C3CCNCC3)c2)nc2c1N(C)C(=O)c1cc3ccccc3cc1N2C [HTH 01-015],concentration above which toxic to motor neurons in the absence of CPA,[6],above 2 μM
same,IC50,[7],100 nM
same,rescue of CPA toxicity,[8],unable to rescue CPA toxicity
same,rescue of CPA toxicity,[9],failed to rescue CPA toxicity
"OCCN1CCN(Cc2ccc(-c3cnc4[nH]cc(-c5cccc(F)c5)c4c3)cc2)CC1 [Compound 12h, 2-(4-(4-(3-(3-Fluorophenyl)-1H-pyrrolo[2,3-b]pyridin-5-yl)benzyl)piperazin-1-yl)ethan-1-ol]",EC50,[10]; read-out: EC50,100 nM
same,Emax,[10]; read-out: Emax (MN survival % untreated),117%
same,Kp at 30 min,[11]; 10 mg/kg,2
same,Kp at 30 min,[11]; 20 mg/kg,3.3
same,concentration at 30 min,"[11]; 10 mg/kg, read-out: brain",< 500 ng/g and < 1.2 µM
same,concentration at 30 min,"[11]; 10 mg/kg, read-out: plasma",< 250 ng/mL and < 580 nM
same,concentration at 30 min,"[11]; 20 mg/kg, read-out: brain",1670 ng/g and 3.88 µM
same,concentration at 30 min,"[11]; 20 mg/kg, read-out: plasma",505 ng/mL and 1.17 µM
same,oral bioavailability (from reduction of cjun phosphorylation after oral gavage),[12],orally bioavailable
